{"source": "patent US20240115530A1", "about": "“ADMINISTRATION OF BAIBA TO INCREASE BENEFIT OF LOSING WEIGHT OF INTERMITTENT FASTING” (NANJING NUTRABUILDING BIO-TECH CO., LTD., priority 2021, published 2024)", "type_in_all_cases": "in vivo, C57BL/6 male mice", "key": {"[1]": {"assay": "Serum insulin and leptin by ELISA in HFD-fed obese mice", "conditions": "150 mg/kg daily per oral, end of treatment period, with or without EODF, vs same regimen without L-BAIBA", "description": "(§1) Each study group consisted of ten animals, and treatment details of the individual study groups are given below: • Group A (GA, NC): Normal mice, maintained on normal diet for 11 weeks, receiving neither EODF nor L-BAIBA treatment. • Group B1 (GB1, HFD): Obese mice, maintained on high fat diet (HFD) for 11 weeks, receiving neither EODF nor L-BAIBA treatment. • Group B2 (GB2, HFD+EODF): Obese mice, maintained on HFD for 11 weeks, receiving only EODF and no L-BAIBA treatment. • Group B3 (GB3, HFD+BAIBA): Obese mice, maintained on HFD for 11 weeks, receiving only L-BAIBA treatment and no EODF. • Group B4 (GB4, HFD+EODF+BAIBA): Obese mice, maintained on HFD for 11 weeks, receiving L-BAIBA treatment and EODF combination.\n(§2) L-BAIBA was administered daily via per oral route according to a level of 150 mg/kg body weight. Animals not receiving L-BAIBA were given orally with ultrapure water.\n(§3) Intermittent fasting model: HFD fed male mice in groups at 8 weeks of age were randomly assigned into either ad libitum, or every-other-day-fasting (EODF) groups on a per cage basis. All cage bedding was changed to paper bedding for the duration of the model. […]\nSerum levels of insulin and leptin were determined at the end of the treatment period by standard ELISA methods. […]"}, "[2]": {"assay": "Body weight reduction in HFD-fed obese mice with or without EODF", "conditions": "150 mg/kg daily per oral, 8-week treatment, vs same regimen without L-BAIBA", "procedure": "50 C57BL/6 male mice aged about 8 weeks, are randomly assigned to five study groups (GA, GB1, GB2, GB3, GB4) of ten mice each (two cages, 1 cage, n=5 per condition). Each animal's body weight is measured by a weight scale and recorded.\nThe total experimental time is 19 weeks, including two periods: an eleven-week induction period and a subsequent eight-week treatment period.\nas §1\nL-BAIBA was administered daily via per oral route according to a level of 150 mg/kg body weight. […]\nEach mouse's body weight is measured weekly during the study at 1200 h. FIG. 1 is the average body weight of mice in all test groups (Body weight were recorded from the beginning of the experiment). […]"}, "[3]": {"assay": "Blood glucose and oral glucose tolerance test (OGTT) in HFD-fed obese mice", "conditions": "150 mg/kg daily per oral, vs same regimen without L-BAIBA", "description": "as §1, §2, §3\nGlucose levels in blood were measured weekly (week 12-19) on the starting day of every week before the day's EODF and L-BAIBA dosing activities. […]"}, "[4]": {"assay": "Blood lipid biochemistry (TG, TCHO, LDL, VLDL) in HFD-fed obese mice", "conditions": "150 mg/kg daily per oral, end of study, with or without EODF, vs same regimen without L-BAIBA", "description": "as §1, §2\nIntermittent fasting model: HFD fed male mice in groups at 8 weeks of age were randomly assigned into either ad libitum, or every-other-day-fasting (EODF) groups on a per cage basis. All cage bedding was changed to paper bedding for the duration of the model. Mice in the EODF group had total deprivation of food and ad libitum access to water from 1200 h-1200 h on alternate days with ad libitum food and water access. EODF cages were changed upon induction of fasting. Ad libitum control mice cages were changed every other day with fresh food provided.\n50 C57BL/6 male mice aged about 8 weeks, are randomly assigned to five study groups (GA, GB1, GB2, GB3, GB4) of ten mice each (two cages, 1 cage, n=5 per condition).\nThe same procedures were conducted as above-discussed Example 1.\nAt the end of the study, blood was collected from all test groups and a various clinical parameter were determined: triglyceride (TG), total cholesterol (TCHO), low-density lipoprotein (LDL) and very low-density lipoprotein (VLDL). FIG. 2a-2d are the results of TG, TCHO, LDL and VLDL in all test groups, respectively. […] This effect persists for as long as the test protocol is continued."}}}
{"smiles": "C[C@@H](CN)C(=O)O", "note": "[L-BAIBA, L-β-aminoisobutyric acid]", "values": [{"measurement": "insulin resistance (serum insulin)", "setting": "[1]", "value": "improved"}, {"measurement": "leptin resistance (serum leptin)", "setting": "[1]", "value": "improved leptin resistance"}, {"measurement": "body weight", "setting": "[2]", "value": "greater reduction in body weight"}, {"measurement": "glucose tolerance (OGTT)", "setting": "[3]; OGTT after the treatment period, with or without EODF", "value": "better glucose tolerance"}, {"measurement": "blood glucose level", "setting": "[3]; measured weekly week 12-19, with or without EODF", "value": "greater reduction in blood glucose level"}, {"measurement": "low-density lipoprotein (LDL) level in blood", "setting": "[4]", "value": "lower levels"}, {"measurement": "total cholesterol (TCHO) level in blood", "setting": "[4]", "value": "lower levels"}, {"measurement": "triglyceride (TG) level in blood", "setting": "[4]", "value": "lower levels"}, {"measurement": "very low-density lipoprotein (VLDL) level in blood", "setting": "[4]", "value": "lower levels"}]}
